# Reference: paper PMC2751796 (Pharmacology & therapeutics, 2009)
# Where two headings read alike, the source gives them in different places.
# Tests used:
# [1] = cited from earlier work
# hPXR = conditions: ref Bauer et al., 2006, cited from earlier work
# P-gp [2] = system: P-gp; design: species or system human; conditions: at 5.6 μM cyclosporine blood concentration
# P-gp [3] = conditions: ref Passchier et al., 2003; cited from earlier work
# P-gp [4] = conditions: cited from earlier work
# P-gp [5] = conditions: cited from earlier work; remark: listed apart in the source
# P-gp [6] = conditions: ref Hugnet et al., 1996; Mealey et al., 2001, 2003, 2008; Sartor et al., 2004; cited from earlier work
# [7] = cited from earlier work; remark: listed apart in the source
# rOAT3 = conditions: inhibition of rOAT3-mediated 6-mercaptopurine transport; ref Mori et al., 2004; cited from earlier work
# [8] = cited from earlier work; remark: listed apart in the source
# [9] = cited from earlier work; remark: listed apart in the source
# P-gp [10] = conditions: cited from earlier work; remark: listed apart in the source
# Bcrp [11] = conditions: cited from earlier work
# [12] = mice, cited from earlier work; for Inhibitor concentration (brain): 50 mg/kg, PO
# P-gp [13] = conditions: read-out: Reported EC50; ref Ekins et al., 2002; Rautio et al., 2006; cited from earlier work
# Mrp2 = conditions: ref Potschka et al., 2003; cited from earlier work
# [14] = system: MRPs, organic anion transporters; conditions: cited from earlier work
# P-gp [15] = conditions: cited from earlier work; remark: listed apart in the source
# P-gp [16] = target: P-gp (Rattus norvegicus, UniProt Q6PSM0); conditions: dose-dependent; ref Anderson et al., 2006; cited from earlier work
# P-gp (Rattus norvegicus, UniProt Q6PSM0), sequence (Q6PSM0 1-1272): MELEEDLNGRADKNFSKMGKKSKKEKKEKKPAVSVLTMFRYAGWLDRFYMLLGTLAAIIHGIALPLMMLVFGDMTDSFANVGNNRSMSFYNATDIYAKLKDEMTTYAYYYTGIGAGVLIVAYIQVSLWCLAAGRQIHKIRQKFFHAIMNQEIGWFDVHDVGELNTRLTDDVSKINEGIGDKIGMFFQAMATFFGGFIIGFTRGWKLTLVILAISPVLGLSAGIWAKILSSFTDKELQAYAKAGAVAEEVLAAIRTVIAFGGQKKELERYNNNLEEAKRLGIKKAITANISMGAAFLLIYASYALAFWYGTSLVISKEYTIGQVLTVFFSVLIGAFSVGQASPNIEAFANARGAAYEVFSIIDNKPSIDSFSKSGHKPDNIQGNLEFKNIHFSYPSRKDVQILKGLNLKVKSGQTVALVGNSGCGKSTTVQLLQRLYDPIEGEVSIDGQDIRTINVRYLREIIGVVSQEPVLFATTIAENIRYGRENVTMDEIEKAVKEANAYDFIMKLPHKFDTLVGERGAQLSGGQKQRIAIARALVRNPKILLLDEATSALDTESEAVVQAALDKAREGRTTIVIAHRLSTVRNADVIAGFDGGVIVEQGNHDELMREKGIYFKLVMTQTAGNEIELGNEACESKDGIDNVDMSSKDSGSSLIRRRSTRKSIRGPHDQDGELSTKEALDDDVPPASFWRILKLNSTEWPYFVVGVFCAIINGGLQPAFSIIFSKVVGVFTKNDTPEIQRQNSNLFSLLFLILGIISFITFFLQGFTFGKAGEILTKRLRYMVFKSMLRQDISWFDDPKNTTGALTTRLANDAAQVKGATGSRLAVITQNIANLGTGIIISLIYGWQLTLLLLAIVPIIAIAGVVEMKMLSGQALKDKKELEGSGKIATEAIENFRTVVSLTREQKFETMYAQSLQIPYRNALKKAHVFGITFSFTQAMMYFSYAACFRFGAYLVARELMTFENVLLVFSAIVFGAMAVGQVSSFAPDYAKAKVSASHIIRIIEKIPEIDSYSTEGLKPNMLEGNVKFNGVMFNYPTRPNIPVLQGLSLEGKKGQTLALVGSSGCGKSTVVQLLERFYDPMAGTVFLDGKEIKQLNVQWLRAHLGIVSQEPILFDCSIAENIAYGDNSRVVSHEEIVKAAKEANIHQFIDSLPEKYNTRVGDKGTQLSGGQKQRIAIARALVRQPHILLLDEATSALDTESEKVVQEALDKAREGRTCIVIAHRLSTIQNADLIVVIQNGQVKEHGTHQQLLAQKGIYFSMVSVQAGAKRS
# P-gp [17] = conditions: cited from earlier work; remark: listed apart in the source
# Bcrp [18] = conditions: ref de Vries et al., 2007; cited from earlier work
# P-gp and BCRP = conditions: cited from earlier work
# P-gp [19] = conditions: 150 mg, iv; ref Kurnik et al., 2008; cited from earlier work
# [20] = highest dose; ref Bankstahl et al., 2008; cited from earlier work
# [21] = intraventricularly injected, ref Bode et al., 1980
# [22] = 16 mg, eight healthy subjects, ref Sadeque et al., 2000
# [23] = Valspodar (12.5 mg/kg, IV), Conc., ref Choo et al., 2000
# [24] = Verapamil (12.5 mg/kg, IV), Conc., ref Choo et al., 2000
# [25] = Zosuquidar (50 mg/kg, IV), Conc., ref Choo et al., 2000
# [26] = Elacridar (50 and 100 mg/kg, PO), AUC, ref de Vries et al., 2007
# [27] = parameter not given, ref Saito et al., 2001
compound,measurement,setting,value
O[C@@H](COc1cccc2ncccc12)CN1CCN([C@@H]2c3ccccc3[C@@H]3[C@H](c4ccccc42)C3(F)F)CC1 [Zosuquidar],Precipitant drug concentration (CSF),[1]; in vivo,8.5 ng/mL
CO[C@H]1/C=C/O[C@@]2(C)Oc3c(C)c(O)c4c(O)c(c(/C=N/N5CCN(C)CC5)c(O)c4c3C2=O)NC(=O)/C(C)=C\C=C\[C@H](C)[C@H](O)[C@@H](C)[C@@H](O)[C@@H](C)[C@H](OC(C)=O)[C@@H]1C [Rifampin],Predicted average steady state unbound plasma concentration,"hPXR; 50 mg/kg, oral, for 3 days",0.34 µg/mL
CN([11CH3])C(=O)C(CCN1CCC(O)(c2ccc(Cl)cc2)CC1)(c1ccccc1)c1ccccc1 [[^11C]-Loperamide],Predicted increase in CNS distribution in humans,P-gp [2],56-412%
same,Increase in brain radioactivity with cyclosporine in pigs,P-gp [3],up to 7 fold
same,Increase in plasma radioactivity with DCPQ,"P-gp [4]; rhesus monkey, 8 mg/kg, ref Zoghbi et al., 2008",16%
same,Increase in distribution of radioactivity at the human BBB on P-gp inhibition,P-gp [5]; data obtained so far,~100%
same,Increase of brain [^11C]-loperamide with cyclosporine in humans,"P-gp [5]; intravenous infusion 10 mg/kg/2 hr, ref Passchier et al., 2008",~110%
CCC(=O)C(CC(C)N(C)C)(c1ccccc1)c1ccccc1 (stereo not drawn) [methadone],Decrease of antinociceptive effect after rifampin,"hPXR; hPXR transgenic mice, vs. vehicle",70%
O=c1[nH]cnc2c1ncn2[C@H]1CC[C@@H](CO)O1 [Didanosine],Precipitant drug concentration (plasma),"[1]; ref Tuntland et al., 1994",0.9 to 11.3 µg/mL
COc1cccc2c1C(=O)c1c(O)c3c(c(O)c1C2=O)C[C@@](O)(C(=O)CO)C[C@@H]3O[C@H]1C[C@H](N)[C@H](O)[C@H](C)O1 [Doxorubicin],Effect of exposure in Collie and other dog breeds that naturally lack P-gp,P-gp [6],neurological symptoms
same,CNS distribution in untreated subjects (ventricular CSF / plasma conc. ratio),"[7]; ref Warren et al., 2000",< 0.05 (ventricular CSF / plasma conc. ratio)
same,CSF concentrations alone or with intravenous cyclosporine,"P-gp [4]; four adult rhesus monkeys, ref Warren et al., 2000",below the limit of detection
CN(Cc1cnc2nc(N)nc(N)c2n1)c1ccc(C(=O)N[C@@H](CCC(=O)O)C(=O)O)cc1 [Methotrexate],Ki relative to estimated brain concentration in patients receiving chemotherapy,rOAT3,17.5 fold
same,CNS distribution in untreated subjects (ventricular CSF / plasma AUC ratio),"[7]; ref Heideman et al., 1986",0.02 (ventricular CSF / plasma AUC ratio)
same,Increase of CSF concentrations by probenecid,"[8]; 4 patients, ref Howell et al., 1979",2.8 to 4.2 fold
same,Effect of probenecid 1250 mg/m^2 daily on efflux kinetics,[8]; [21],did not change
same,Extension of terminal half life (CSF) by probenecid 2500 mg/m^2,[8]; [21],up to 53%
same,CSF concentrations with vincristine vs. monotherapy,"[8]; patient with lymphoma, ref Tejada & Zubrod, 1979",2.5 fold
same,Effect of vindesine on CSF concentration,"[8]; ref Tubiana et al., 1985",did not affect
CN(C)C(=O)C(CCN1CCC(O)(c2ccc(Cl)cc2)CC1)(c1ccccc1)c1ccccc1 [Loperamide],Increase of plasma AUC with 600 mg ritonavir,"[9]; 12 healthy volunteers, ref Tayrouz et al., 2001",2.7 fold
same,"Increase of plasma AUC with ritonavir (200 mg twice daily, 5.5 days)","[9]; ref Mukwaya et al., 2005",2.2 fold
same,"Opioid-induced respiratory depression, given alone",P-gp [10]; [22],did not produce respiratory depression
same,"Opioid-induced respiratory depression, with quinidine sulfate (600 mg)",P-gp [10]; [22],respiratory depression occurred
same,"Effect of tariquidar (150 mg, iv) on plasma concentrations and CNS effects","P-gp [10]; loperamide 32 mg orally, nine healthy volunteers, ref Kurnik et al., 2008",did not significantly affect
same,Effect of exposure in Collie and other dog breeds that naturally lack P-gp,P-gp [6],neurological symptoms
CC[C@@]1(O)C(=O)OCc2c1cc1n(c2=O)Cc2cc3c(CN(C)C)c(O)ccc3nc2-1 [topotecan lactone],Decrease of ventricular CSF-to-plasma AUC ratio with gefitinib,"Bcrp [11]; mouse, in vivo",17%
C=C[C@H]1C[N@@]2CC[C@H]1C[C@@H]2[C@@H](O)c1ccnc2ccc(OC)cc12 [Quinidine],Inhibitor concentration (plasma),"[12]; 100 mg/kg, IP, ref Fromm et al., 1999",~2 µM
same,Total concentration achievable in humans treated for tumors,"[9]; ref Raderer & Scheithauer, 1993",4.5 to 5.6 µM
same,EC50,P-gp [13],2 to 55 µM
O=C1NC(=O)C(c2ccccc2)(c2ccccc2)N1 [Phenytoin],Extracellular concentrations and anticonvulsant activity vs. rats that do not lack Mrp2,Mrp2,two-fold greater
same,Enhancement of brain penetration and anticonvulsant activity by probenecid,"[14]; ref Potschka et al., 2003",up to two-fold
Cc1c(O)cccc1C(=O)N[C@@H](CSc1ccccc1)[C@H](O)CN1C[C@H]2CCCC[C@H]2C[C@H]1C(=O)NC(C)(C)C [Nelfinavir],Fold change in brain uptake ratio in inhibitor-treated vs. control mice,"P-gp [15]; Elacridar (10 mg/kg, IV), Conc., ref Salama et al., 2005, Giri et al., 2008",8.7 fold
same,Fold change in brain uptake ratio in inhibitor-treated vs. control mice (value corrected for drug in vasculature),"P-gp [15]; Elacridar (10 mg/kg, IV), Conc., ref Salama et al., 2005",8.9 fold
same,Fold change in brain uptake ratio in inhibitor-treated vs. control mice,P-gp [15]; [23],10.3 fold
same,Fold change in brain uptake ratio in inhibitor-treated vs. control mice (value corrected for drug in vasculature),P-gp [15]; [23],13.3 fold
same,Fold change in brain uptake ratio in inhibitor-treated vs. control mice,P-gp [15]; [24],"1.0 (1.0), Conc. fold"
same,Fold change in brain uptake ratio in inhibitor-treated vs. control mice (value corrected for drug in vasculature),P-gp [15]; [24],"1.0 (1.0), Conc. fold"
same,Fold change in brain uptake ratio in inhibitor-treated vs. control mice,P-gp [15]; [25],18.1 fold
same,Fold change in brain uptake ratio in inhibitor-treated vs. control mice (value corrected for drug in vasculature),P-gp [15]; [25],25.1 fold
same,Fold change in brain uptake ratio in inhibitor-treated vs. control mice,"P-gp [15]; Zosuquidar (50 mg/kg, IV), Conc., ref Choo et al., 2000, listed as nelfinavir",up to 18 fold
same,EC50,P-gp [13],1.4 to 44 µM
same,CNS distribution in untreated subjects (brain / plasma conc. ratio),"[7]; ref Kaddoumi et al., 2007, Eyal, et al., 2009",0.04
same,"CNS distribution in untreated subjects (lumbar CSF / plasma, conc. ratio)","[7]; ref Kaddoumi et al., 2007",0.006
same,Increase in brain uptake with zosuquidar in rats,P-gp [16],≤ 29 fold
C/C=C/C[C@@H](C)C(=O)[C@H]1C(=O)N[C@@H](C(C)C)C(=O)N(C)CC(=O)N(C)[C@@H](CC(C)C)C(=O)N[C@@H](C(C)C)C(=O)N(C)[C@@H](CC(C)C)C(=O)N[C@@H](C)C(=O)N[C@H](C)C(=O)N(C)[C@@H](CC(C)C)C(=O)N(C)[C@@H](CC(C)C)C(=O)N(C)[C@@H](C(C)C)C(=O)N1C [Valspodar],Inhibitor concentration (brain),"[12]; ref Mayer et al., 1997",250 ng/g
CC[C@@]1(O)C(=O)OCc2c1cc1n(c2=O)Cc2cc3c(CN(C)C)c(O)ccc3nc2-1 [Topotecan],Brain-to-plasma AUC ratio in Mdr1a/b-/- mice compared to WT controls,"P-gp [17]; ref de Vries et al., 2007",two times higher
same,Fold change in brain uptake ratio in inhibitor-treated vs. control mice,P-gp [15]; [26],1.6 fold
same,Fold change in brain uptake ratio in inhibitor-treated vs. control mice (value corrected for drug in vasculature),P-gp [15]; [26],1.7 fold
same,Fold change in brain uptake ratio in inhibitor-treated vs. control mice,"P-gp [15]; Gefitinib (200 mg/kg, PO), AUC, microdialysis, ref Zhuang et al., 2006","1.7 ^b, AUC fold"
same,Brain-to-plasma AUC ratio in Bcrp-/- mice compared to WT controls,Bcrp [18],not different
same,Increase of brain-to-plasma AUC ratio in Mdr1a/b-/-/Bcrp-/- mice,"P-gp and BCRP; ref de Vries et al., 2007",3.2 fold
same,Increase of oral bioavailability with elacridar in Mdr1a/b-/- mice,"Bcrp [11]; ref Jonker et al., 2000",more than 6 fold
same,Increase of placental transfer with elacridar in Mdr1a/b-/- mice,"Bcrp [11]; ref Jonker et al., 2000",> 2 fold
same,Increase of brain distribution with elacridar in Mdr1a/b-/- mice,"Bcrp [11]; ref de Vries et al., 2007",1.6 fold
CC[C@]1(O)C[C@@H]2CN(CCc3c([nH]c4ccccc34)[C@@](C(=O)OC)(c3cc4c(cc3OC)N(C)[C@H]3[C@@](O)(C(=O)OC)[C@H](OC(C)=O)[C@]5(CC)C=CCN6CC[C@]43[C@@H]65)C2)C1 [Vinblastine],Fold change in brain uptake ratio in P-gp KO vs. control mice,P-gp [17]; [27],3.3 fold
same,Fold change in brain uptake ratio in P-gp KO vs. control mice (value corrected for drug in vasculature),P-gp [17]; [27],3.4 fold
same,Increase in brain uptake by valspodar and elacridar,"P-gp [15]; ref Cisternino et al., 2001",3 fold
same,Effect of exposure in Collie and other dog breeds that naturally lack P-gp,P-gp [6],neurological symptoms
Cc1nc(Nc2ncc(C(=O)Nc3c(C)cccc3Cl)s2)cc(N2CCN(CCO)CC2)n1 [dasatinib],Increase of brain-to-plasma concentration ratio in triple KO mice,"P-gp and BCRP; ref Oostendorp et al., 2009, Chen et al., 2008",10 fold
COc1cc2c(cc1OC)CN(CCc1ccc(NC(=O)c3cc(OC)c(OC)cc3NC(=O)c3cnc4ccccc4c3)cc1)CC2 [Tariquidar],Inhibitor concentration (brain),"[12]; ref Hubensack et al., 2008",3-9 nmol/g (brain) (∼2-fold greater in plasma)
same,Inhibition of lymphocyte P-gp activity,P-gp [19],completely inhibited
same,Tariquidar blood concentration,[20],1402 ng/mL
same,Tariquidar brain concentration,[20],4131 ng/mL
Sc1ncnc2nc[nH]c12 [6-mercaptopurine],Increase of brain-to-plasma concentration ratio with probenecid in rats,"[14]; ref Deguchi et al., 2000",up to 4.4 fold
Cc1cn([C@H]2C[C@H](N=[N+]=[N-])[C@@H](CO)O2)c(=O)[nH]c1=O [Zidovudine],Precipitant drug concentration (CSF),"[1]; ref Tuntland et al., 1994",100 to 2200 ng/mL
same,Precipitant drug concentration (plasma),"[1]; ref Tuntland et al., 1994",0.5 to 11.2 µg/mL
